Test results published in PMC4778918, “Signal Transduction at the Domain Interface of Prokaryotic Pentameric Ligand-Gated Ion Channels” (PLoS Biology, 2016).
Residue numbers refer to the chain shown, from its start. Numbers in names are those of the source. Where “and” joins values, the source holds several entries; their conditions need not be identical. Equal values may be shown once. Read-outs that look alike come from different tables or passages of the source.

Experiments:
[1] = molecular target: ELIC ligand binding site mutant R91A; assay: SEC
[2] = molecular target: ELIC double mutant R91A/Y258A; assay: SEC
ELIC R91A/F116A = ELIC R91A/F116A (Dickeya chrysanthemi, UniProt P0C7B7, F116A/R91A); assay: biochemical; type: binding, Erwinia chrisanthemi; conditions: read-out: Keff
ELIC R91A/Y258A = ELIC R91A/Y258A (Dickeya chrysanthemi, UniProt P0C7B7, R91A/Y257A); assay: biochemical; type: binding, Erwinia chrisanthemi; conditions: read-out: Keff
ELIC R91A = ELIC R91A (Dickeya chrysanthemi, UniProt P0C7B7, INS163G/R91A); assay: biochemical; type: binding, Erwinia chrisanthemi; conditions: read-out: Keff
ELIC T28D [3] = molecular target: T1, ELIC T28D (Dickeya chrysanthemi, UniProt P0C7B7, INS163G/T28D); assay: biochemical; type: binding, Erwinia chrisanthemi; conditions: ITC
ELIC T28A = ELIC T28A (Dickeya chrysanthemi, UniProt P0C7B7, INS163G/T28A); type: cell-based, Erwinia chrisanthemi; conditions: for I/Imax mean: ELIC T28A, 0.5 mM Ca2+, mean of 4 oocytes
From the text: (§1) X. laevis oocytes were obtained either from Ecocyte or from an in-house facility. Animal procedures and preparation of oocytes followed standard procedures and were in accordance with the Swiss Cantonal and Federal legislation relating to animal experimentation. Plasmid DNA containing the genes coding for the respective constructs for expression in X. laevis oocytes were linearized by MluI, and capped mRNA was transcribed with the mMessage mMachine kit (Ambion) and purified with the RNeasy kit (Qiagen). 10–200 ng of mRNA was injected into defolliculated X. laevis oocytes, which were subsequently incubated in Barth’s solution (88 mM NaCl, 1 mM KCl, 1 mM CaCl2, 0.33 mM Ca(NO3)2, 0.82 mM MgSO4, 10 mM Na-Hepes (pH 7.4) and 50 μg / ml Gentamycin) and stored at 16°C. One to three days after injection, two-electrode voltage clamp measurements were performed at 20°C (OC-725B, Warner Instrument Corp.). For ELIC, maximal currents were recorded in a bath solution containing 10 mM Hepes (pH 7), 130 mM NaCl, 2 mM KCl, 0.5 mM CaCl2 and either 5 mM or 25 mM Cysteamine. […] Dose-response experiments were carried out at agonist concentrations indicated in the respective figures. Voltage was clamped at −40 mV, and data was filtered at 20 Hz unless stated otherwise.

ELIC ΔL29 = ELIC ΔL29 (Dickeya chrysanthemi, UniProt P0C7B7, DEL29-29/INS163G); type: cell-based, Erwinia chrisanthemi; conditions: ELIC woL29 (deletion of Leu29), 0.5 mM Ca2+, mean of 4 oocytes
From the text: as §1

ELIC L29A = ELIC L29A (Dickeya chrysanthemi, UniProt P0C7B7, INS163G/L29A); type: cell-based, Erwinia chrisanthemi; conditions: 0.5 mM Ca2+, mean of 3 oocytes
From the text: as §1

ELIC P254A = ELIC P254A (Dickeya chrysanthemi, UniProt P0C7B7, P253A); type: cell-based, Erwinia chrisanthemi
From the text: as §1

ELIC T28D [4] = molecular target: T1, ELIC T28D; type: cell-based, Erwinia chrisanthemi; conditions: 0.5 mM Ca2+, mean of 5 oocytes
From the text: as §1

ELIC WT [5] = molecular target: T2, ELIC WT (Dickeya chrysanthemi, UniProt P0C7B7, INS163G); assay: Two-electrode voltage clamp dose-response, ELIC WT in X. laevis oocytes; type: cell-based, Erwinia chrisanthemi; conditions: 0.5 mM Ca2+, mean of 4 oocytes
From the text: X. laevis oocytes were obtained either from Ecocyte or from an in-house facility. Animal procedures and preparation of oocytes followed standard procedures and were in accordance with the Swiss Cantonal and Federal legislation relating to animal experimentation. Plasmid DNA containing the genes coding for the respective constructs for expression in X. laevis oocytes were linearized by MluI, and capped mRNA was transcribed with the mMessage mMachine kit (Ambion) and purified with the RNeasy kit (Qiagen). 10–200 ng of mRNA was injected into defolliculated X. laevis oocytes, which were subsequently incubated in Barth’s solution (88 mM NaCl, 1 mM KCl, 1 mM CaCl2, 0.33 mM Ca(NO3)2, 0.82 mM MgSO4, 10 mM Na-Hepes (pH 7.4) and 50 μg / ml Gentamycin) and stored at 16°C. One to three days after injection, two-electrode voltage clamp measurements were performed at 20°C (OC-725B, Warner Instrument Corp.). For ELIC, maximal currents were recorded in a bath solution containing 10 mM Hepes (pH 7), 130 mM NaCl, 2 mM KCl, 0.5 mM CaCl2 and either 5 mM or 25 mM Cysteamine. For GLIC, the maximal currents were recorded in a bath solution containing 10 mM Citrate (pH 4), 130 mM NaCl, 2 mM KCl, 1.8 mM CaCl2 and 1 mM MgCl2. Dose-response experiments were carried out at agonist concentrations indicated in the respective figures. Voltage was clamped at −40 mV, and data was filtered at 20 Hz unless stated otherwise. Surface expression in constructs containing an HA-tag was assayed after electrophysiological characterization as described. For that purpose, the oocytes were placed in a 96-well plate (TPP) and incubated in ND96 solution (93.5 mM NaCl, 2 mM KCl, 1.8 mM CaCl2, 2 mM MgCl2 and 10 mM Hepes, pH 7.4) containing 1% BSA for at least 30 min. All steps were carried out at 4°C with the same buffer unless mentioned otherwise. Oocytes were subsequently transferred into buffer containing 1 μg/ml rat monoclonal anti-HA antibody (3F10, Roche) for 1 h, washed 3 times and incubated with buffer containing 0.16 μg/ml horseradish peroxidase (HRP) coupled to a secondary antibody (HRP-conjugated goat anti-rat F(Ab)2 fragments, Jackson) for 30–60 min. The oocytes were washed 5 times with ND96 solution and subsequently transferred to a white 96-well plate (flat bottom, Nunclon Delta Surface). The solution was aspirated, 30 μl of Super Signal ELISA femto solutions 1 and 2 (Pierce) was added, and luminescence was quantitated with a Tecan infinite M1000 plate reader.

ELIC WT [6] = molecular target: T2, ELIC WT; assay: biochemical; type: binding, Erwinia chrisanthemi
ELIC resting state = conditions: kinetic analysis of single channel recordings of ELIC; read-out: dissociation constant to the resting state; cited from earlier work
ELIC = test system: ELIC; set-up: method as in PMID 21713033; conditions: two-electrode voltage clamp recordings, ELIC WT, in the absence of Ca2+; cited from earlier work
[7] = molecular target: the molecule itself; assay: SEC; gel filtration on Superdex 200 at 4°C in buffer with 0.145% UDM after removal of His10-MBP; pentamer peak pooled for ITC
SEC = molecular target: the molecule itself; assay: SEC

Molecule: ELIC ligand binding site mutant R91A (receptor)
- stoichiometry N [1]: 5

Molecule: ELIC double mutant R91A/Y258A (receptor)
- stoichiometry N [2]: 5

Molecule: CC(=O)OCC[N+](C)(C)C [acetylcholine]
- Kd (ELIC R91A/F116A): 1.8 mM
- Kd (ELIC R91A/Y258A): 2 mM
- Kd (ELIC R91A): 1.4 mM
- binding of the antagonist compared to WT (ELIC T28D [3]; ELIC T28D versus WT): unchanged

Molecule: NCCS [cysteamine]
- EC50 higher than WT (ELIC T28A; ELIC T28A versus WT, two-electrode voltage clamp): 3.5 fold
- I/Imax mean (ELIC T28A; conc cys. 1.00 (mM)): 0.0138
- I/Imax mean (ELIC T28A; conc cys. 2.50 (mM)): 0.34
- I/Imax mean (ELIC T28A; conc cys. 5.00 (mM)): 0.56
- I/Imax mean (ELIC T28A; conc cys. 10.00 (mM)): 0.83
- I/Imax mean (ELIC T28A; conc cys. 25.00 (mM)): 1.00
- I/Imax mean (ELIC ΔL29; conc cys. 0.25 (mM)): 0.10
- I/Imax mean (ELIC ΔL29; conc cys. 0.5 (mM)): 0.43
- I/Imax mean (ELIC ΔL29; conc cys. 0.75 (mM)): 0.64
- I/Imax mean (ELIC ΔL29; conc cys. 1 (mM)): 0.86
- I/Imax mean (ELIC ΔL29; conc cys. 2.5 (mM)): 1.00
- I/Imax mean (ELIC L29A; conc cys. 0.1 (mM)): 0.16
- I/Imax mean (ELIC L29A; conc cys. 0.25 (mM)): 0.69
- I/Imax mean (ELIC L29A; conc cys. 0.35 (mM)): 0.79
- I/Imax mean (ELIC L29A; conc cys. 0.5 (mM)): 0.88
- I/Imax mean (ELIC L29A; conc cys. 0.75 (mM)): 1.00
- I/Imax mean (ELIC P254A; conc cys. 0.25 (unit not given)): 0.0189
- I/Imax mean (ELIC P254A; conc cys. 0.5 (unit not given)): 0.14
- I/Imax, single oocyte (ELIC P254A; conc cys. 0.5 (unit not given), listed as cys.): 0.13 and 0.12 and 0.19
- I/Imax mean (ELIC P254A; conc cys. 0.75 (unit not given)): 0.41
- I/Imax, single oocyte (ELIC P254A; conc cys. 0.75 (unit not given), listed as cys.): 0.33 and 0.45 and 0.39 and 0.42
- I/Imax mean (ELIC P254A; conc cys. 1 (unit not given)): 0.51
- I/Imax, single oocyte (ELIC P254A; conc cys. 1 (unit not given), listed as cys.): 0.42 and 0.56 and 0.47
- I/Imax mean (ELIC P254A; conc cys. 2.5 (unit not given)): 0.90
- I/Imax, single oocyte (ELIC P254A; conc cys. 2.5 (unit not given), listed as cys.): 0.82 and 0.97 and 0.85 and 0.95 and 0.92
- I/Imax mean (ELIC P254A; conc cys. 5 (unit not given)): 1.00
- I/Imax, single oocyte (ELIC P254A; conc cys. 5 (unit not given)): 1.00
- I/Imax mean (ELIC T28D [4]; conc cys. 0.01 (mM)): 0.13
- I/Imax mean (ELIC T28D [4]; conc cys. 0.025 (mM)): 0.63
- I/Imax mean (ELIC T28D [4]; conc cys. 0.05 (mM)): 0.96
- I/Imax mean (ELIC T28D [4]; conc cys. 0.1 (mM)): 1.00
- I/Imax mean (ELIC WT [5]; conc cys. 0.1 (mM)): 0.00
- I/Imax mean (ELIC WT [5]; conc cys. 0.25 (mM)): 0.00655
- I/Imax mean (ELIC WT [5]; conc cys. 0.5 (mM)): 0.09
- I/Imax mean (ELIC WT [5]; conc cys. 0.75 (mM)): 0.32
- I/Imax mean (ELIC WT [5]; conc cys. 1 (mM)): 0.54
- I/Imax mean (ELIC WT [5]; conc cys. 5 (mM)): 1.00

Molecule: CCCN [propylamine]
- Kd (ELIC R91A/F116A; ITC, ELIC double mutant R91A/F116A, 4°C): 0.8 mM
- Keff (ITC) higher than EC50 (two-electrode voltage clamp) (ELIC WT [6]): about 20 fold
- Kd (ELIC WT [6]; ITC, ELIC WT in detergent (UDM), 4°C, single-site isotherm, read-out: effective dissociation constant (Keff)): 8 mM
- Kd (ELIC resting state): 7.1 mM
- Kd (ELIC R91A/Y258A; ITC, ELIC double mutant R91A/Y258A, 4°C): 0.9 mM
- EC50 (ELIC): 0.45 mM
- Kd (ELIC R91A; ITC, ELIC ligand binding site mutant R91A, 4°C): 1.1 mM
- decrease in Keff concentration compared to WT (ELIC T28D [3]; ELIC T28D versus WT): 90 fold
- Kd (ELIC T28D [3]; ELIC mutant T28D, agonist, read-out: Keff): 0.09 mM

B1: ELIC wild type (receptor)
chain: APADNAADARPVDVSVSIFINKIYGVNTLEQTYKVDGYIVAQWTGKPRKTPGDKPLIVENTQIERWINNGLWVPALEFINVVGSPDTGNKRLMLFPDGRVIYNARFLGSFSNDMDFRLFPFDRQQFVLELEPFSYNNQQLRFSDIQVYTENIDNEEIDEWWIRKASTHISDIRYDHLSSVQPNQNEFSRITVRIDAVRNPSYYLWSFILPLGLIIAASWSVFWLESFSERLQTSFTLMLTVVAYAFYTSNILPRLPYTTVIDQMIIAGYGSIFAAILLIIFAHHRQAMGVEDDLLIQRCRLAFPLGFLAIGCVLVIRGITL
notes: ELIC, prokaryotic pentameric ligand-gated ion channel; GenBank WP_013319743 printed; Homopentamer; purified for ITC with small-molecule ligands; also called ELIC WT; source: E. coli BL21-DE3, purified (extracted in UDM, Ni-NTA, HRV 3C cleavage, Superdex 200 gel filtration); not shown: His10, N-terminal, cleaved
- stoichiometry N [7]: 5

B2: ELIC double mutant R91A/F116A (receptor)
chain: B1 chain with R91A, F116A
notes: source: E. coli BL21-DE3, purified (extracted in UDM, Ni-NTA, HRV 3C cleavage, Superdex 200 gel filtration)
- stoichiometry N (SEC): 5
